What was measured:
[1] = target: Atypical kinase COQ8A, mitochondrial (Homo sapiens) (UniProt Q8NI60); assay: Inhibition of wild-type human […] ADCK3 (M280 to Q647 residues) expressed in bacterial expression system assessed as residual activity at 50 nM by Kinomescan method relative to control
[2] = target: Serine/threonine-protein kinase 32C (Homo sapiens) (UniProt Q86UX6); assay: Inhibition of wild-type human partial length YANK3 (M68 to G486 residues) expressed in bacterial expression system assessed as residual activity at 50 nM by Kinomescan method relative to control
[3] = target: Casein kinase II subunit alpha (Homo sapiens) (UniProt P68400); assay: Inhibition of wild-type human full length CK2A1 (M1 to Q391 residues) expressed in mammalian expression system assessed as residual activity at 50 nM by Kinomescan method relative to control
Casein kinase II subunit alpha (Homo sapiens), sequence (P68400 whole entry, looked up, the tested form may be a part): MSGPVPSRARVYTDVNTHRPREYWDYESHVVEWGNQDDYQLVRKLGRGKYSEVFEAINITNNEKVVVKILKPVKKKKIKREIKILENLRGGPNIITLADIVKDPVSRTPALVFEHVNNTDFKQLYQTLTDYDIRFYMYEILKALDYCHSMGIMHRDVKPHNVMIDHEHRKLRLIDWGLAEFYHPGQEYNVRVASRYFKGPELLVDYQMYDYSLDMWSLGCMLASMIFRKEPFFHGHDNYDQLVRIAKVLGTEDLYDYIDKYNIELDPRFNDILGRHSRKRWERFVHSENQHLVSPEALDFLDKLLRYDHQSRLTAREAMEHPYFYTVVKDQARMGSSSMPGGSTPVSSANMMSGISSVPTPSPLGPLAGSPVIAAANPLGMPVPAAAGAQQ

[4] = target: Megakaryocyte-associated tyrosine-protein kinase (Homo sapiens) (UniProt P42679); assay: Inhibition of wild-type human full length CTK (M43 to P508 residues) expressed in mammalian expression system assessed as residual activity at 50 nM by Kinomescan method relative to control
[5] = target: Serine/threonine-protein kinase ULK1 (Homo sapiens) (UniProt O75385); assay: Inhibition of human ULK1 (M1 to T309 residues) expressed in mammalian expression system assessed as residual activity at 50 nM by KINOMEscan assay relative to control
[6] = target: LIM domain kinase 1 (Homo sapiens) (UniProt P53667); assay: Inhibition of wild-type human full length LIMK1 (M1 to D647 residues) expressed in bacterial expression system assessed as residual activity at 50 nM by Kinomescan method relative to control
LIM domain kinase 1 (Homo sapiens), sequence (P53667 whole entry, looked up, the tested form may be a part): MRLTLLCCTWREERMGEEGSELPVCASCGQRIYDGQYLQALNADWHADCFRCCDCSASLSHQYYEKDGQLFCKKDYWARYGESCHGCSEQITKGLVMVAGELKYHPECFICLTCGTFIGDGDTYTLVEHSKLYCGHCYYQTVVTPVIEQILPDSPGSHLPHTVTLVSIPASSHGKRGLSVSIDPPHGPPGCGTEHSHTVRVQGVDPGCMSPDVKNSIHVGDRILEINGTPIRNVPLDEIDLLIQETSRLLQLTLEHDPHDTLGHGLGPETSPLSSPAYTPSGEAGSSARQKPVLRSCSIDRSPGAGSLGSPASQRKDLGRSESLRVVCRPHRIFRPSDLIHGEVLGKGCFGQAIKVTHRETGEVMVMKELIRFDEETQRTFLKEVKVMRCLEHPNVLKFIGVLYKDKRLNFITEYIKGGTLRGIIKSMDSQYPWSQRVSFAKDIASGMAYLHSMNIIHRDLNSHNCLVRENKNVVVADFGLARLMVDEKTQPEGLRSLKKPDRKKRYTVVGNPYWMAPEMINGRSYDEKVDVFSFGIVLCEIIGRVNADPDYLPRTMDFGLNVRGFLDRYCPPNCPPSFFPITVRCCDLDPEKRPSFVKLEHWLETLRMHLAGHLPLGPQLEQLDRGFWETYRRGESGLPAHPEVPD

[7] = target: Dual specificity mitogen-activated protein kinase kinase 5 (Homo sapiens) (UniProt Q13163); assay: Inhibition of human MAP2K5 (L98 to P448 residues) expressed in mammalian expression system assessed as residual activity at 50 nM by KINOMEscan assay relative to control
[8] = target: Mitogen-activated protein kinase kinase kinase 20 (Homo sapiens) (UniProt Q9NYL2); assay: Inhibition of wild-type human partial length ZAK (M1 to L331 residues) expressed in bacterial expression system assessed as residual activity at 50 nM by Kinomescan method relative to control
Mitogen-activated protein kinase kinase kinase 20 (Homo sapiens), sequence (Q9NYL2 2-800 limits assumed): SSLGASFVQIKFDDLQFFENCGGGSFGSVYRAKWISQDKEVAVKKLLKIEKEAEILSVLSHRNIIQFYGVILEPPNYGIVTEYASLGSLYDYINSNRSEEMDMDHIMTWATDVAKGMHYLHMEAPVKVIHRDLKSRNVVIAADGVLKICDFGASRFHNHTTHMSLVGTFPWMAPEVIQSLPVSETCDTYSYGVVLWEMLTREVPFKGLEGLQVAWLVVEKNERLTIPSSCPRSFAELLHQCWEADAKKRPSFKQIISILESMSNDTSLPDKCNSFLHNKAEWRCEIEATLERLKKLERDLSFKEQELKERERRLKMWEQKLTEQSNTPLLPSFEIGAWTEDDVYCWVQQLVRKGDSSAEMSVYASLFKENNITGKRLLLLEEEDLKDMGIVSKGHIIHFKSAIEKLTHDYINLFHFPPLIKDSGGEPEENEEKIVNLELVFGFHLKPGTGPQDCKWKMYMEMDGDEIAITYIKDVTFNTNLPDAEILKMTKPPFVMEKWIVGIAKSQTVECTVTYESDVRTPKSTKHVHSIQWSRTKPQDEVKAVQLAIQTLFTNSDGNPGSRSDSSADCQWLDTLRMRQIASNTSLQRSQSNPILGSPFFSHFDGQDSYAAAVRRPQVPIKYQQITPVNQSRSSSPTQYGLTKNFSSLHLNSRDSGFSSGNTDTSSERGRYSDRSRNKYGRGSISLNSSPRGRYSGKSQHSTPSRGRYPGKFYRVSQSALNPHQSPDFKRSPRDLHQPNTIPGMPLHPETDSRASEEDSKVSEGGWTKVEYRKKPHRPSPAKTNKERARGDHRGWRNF

[9] = target: Atypical kinase COQ8B, mitochondrial (Homo sapiens) (UniProt Q96D53); assay: Inhibition of wild-type human full length ADCK4 (M1 to S544 residues) expressed in bacterial expression system assessed as residual activity at 50 nM by Kinomescan method relative to control
[10] = target: Aurora kinase B (Homo sapiens) (UniProt Q96GD4); assay: Inhibition of wild-type human partial length AURB (D25 to A303 residues) expressed in mammalian expression system assessed as residual activity at 50 nM by Kinomescan method relative to control
Aurora kinase B (Homo sapiens), sequence (Q96GD4 whole entry, the tested form may be a part, canonical isoform): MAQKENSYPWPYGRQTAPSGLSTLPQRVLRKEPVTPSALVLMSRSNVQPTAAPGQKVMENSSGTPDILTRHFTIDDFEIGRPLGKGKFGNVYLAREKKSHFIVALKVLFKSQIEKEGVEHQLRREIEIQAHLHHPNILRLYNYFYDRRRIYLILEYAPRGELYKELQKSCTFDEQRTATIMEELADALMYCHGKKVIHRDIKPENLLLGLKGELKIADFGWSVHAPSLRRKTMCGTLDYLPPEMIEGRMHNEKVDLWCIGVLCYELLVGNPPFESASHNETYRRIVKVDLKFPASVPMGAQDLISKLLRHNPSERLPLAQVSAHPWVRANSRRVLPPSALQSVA

[11] = test system: Phosphatidylinositol 4,5-bisphosphate 3-kinase catalytic subunit alpha isoform (Homo sapiens), P42336 [H1047Y]; assay: Inhibition of human partial length PIK3CA H1047Y mutant (R108 to N1068 residues) expressed in mammalian expression system assessed as residual activity at 50 nM by Kinomescan method relative to control
[12] = target: Calcium/calmodulin-dependent protein kinase type IV (Homo sapiens) (UniProt Q16566); assay: Inhibition of wild-type human partial length CAMK4 (A22 to A322 residues) expressed in bacterial expression system assessed as residual activity at 50 nM by Kinomescan method relative to control
Calcium/calmodulin-dependent protein kinase type IV (Homo sapiens), sequence (Q16566 whole entry, the tested form may be a part): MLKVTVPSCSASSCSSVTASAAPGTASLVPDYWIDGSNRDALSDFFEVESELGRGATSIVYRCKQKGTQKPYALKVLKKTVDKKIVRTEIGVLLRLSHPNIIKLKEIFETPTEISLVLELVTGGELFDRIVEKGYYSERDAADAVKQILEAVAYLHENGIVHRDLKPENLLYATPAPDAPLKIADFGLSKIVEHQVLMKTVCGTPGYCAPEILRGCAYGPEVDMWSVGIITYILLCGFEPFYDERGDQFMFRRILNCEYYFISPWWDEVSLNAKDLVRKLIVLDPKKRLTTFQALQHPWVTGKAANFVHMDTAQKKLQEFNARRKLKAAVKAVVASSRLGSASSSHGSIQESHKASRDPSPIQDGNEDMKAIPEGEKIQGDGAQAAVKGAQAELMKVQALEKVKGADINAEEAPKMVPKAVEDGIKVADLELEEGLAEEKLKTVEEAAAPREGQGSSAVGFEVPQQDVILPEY

[13] = target: Tyrosine-protein kinase ABL2 (Homo sapiens) (UniProt P42684); assay: Inhibition of wild-type human ARG (A248 to G542 residues) expressed in bacterial expression system assessed as residual activity at 50 nM by Kinomescan method relative to control
[14] = target: Mitogen-activated protein kinase 4 (Homo sapiens) (UniProt P31152); assay: Inhibition of wild-type human partial length ERK4 (M1 to L365 residues) expressed in bacterial expression system assessed as residual activity at 50 nM by Kinomescan method relative to control
[15] = target: Protein-tyrosine kinase 2-beta (Homo sapiens) (UniProt Q14289); assay: Inhibition of wild-type human full length PYK2 (M1 to E967 residues) expressed in bacterial expression system assessed as residual activity at 50 nM by Kinomescan method relative to control
[16] = target: Serine/threonine-protein kinase Sgk3 (Homo sapiens) (UniProt Q96BR1); assay: Inhibition of wild-type human partial length SGK3 (M119 to L496 residues) expressed in mammalian expression system assessed as residual activity at 50 nM by Kinomescan method relative to control
Serine/threonine-protein kinase Sgk3 (Homo sapiens), sequence (Q96BR1 whole entry, the tested form may be a part): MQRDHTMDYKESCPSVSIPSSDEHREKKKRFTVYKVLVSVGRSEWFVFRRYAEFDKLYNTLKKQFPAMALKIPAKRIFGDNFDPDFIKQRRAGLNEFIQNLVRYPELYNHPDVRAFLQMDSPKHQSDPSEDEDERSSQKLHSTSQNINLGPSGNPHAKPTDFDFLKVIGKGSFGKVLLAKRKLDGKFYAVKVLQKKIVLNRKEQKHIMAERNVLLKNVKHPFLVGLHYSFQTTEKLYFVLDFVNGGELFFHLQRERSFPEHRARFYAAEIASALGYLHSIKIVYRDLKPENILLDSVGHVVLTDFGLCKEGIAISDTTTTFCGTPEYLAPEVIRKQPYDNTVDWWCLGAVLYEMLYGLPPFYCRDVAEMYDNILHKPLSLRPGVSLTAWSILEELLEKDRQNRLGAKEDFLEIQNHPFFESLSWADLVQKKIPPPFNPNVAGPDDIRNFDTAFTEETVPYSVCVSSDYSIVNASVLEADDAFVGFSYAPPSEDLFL

[17] = target: Serine/threonine-protein kinase PAK 5 (Homo sapiens) (UniProt Q9P286); assay: Inhibition of wild-type human partial length PAK5 (Y400 to H719 residues) expressed in bacterial expression system assessed as residual activity at 50 nM by Kinomescan method relative to control
Serine/threonine-protein kinase PAK 5 (Homo sapiens), sequence (Q9P286 whole entry, looked up, the tested form may be a part): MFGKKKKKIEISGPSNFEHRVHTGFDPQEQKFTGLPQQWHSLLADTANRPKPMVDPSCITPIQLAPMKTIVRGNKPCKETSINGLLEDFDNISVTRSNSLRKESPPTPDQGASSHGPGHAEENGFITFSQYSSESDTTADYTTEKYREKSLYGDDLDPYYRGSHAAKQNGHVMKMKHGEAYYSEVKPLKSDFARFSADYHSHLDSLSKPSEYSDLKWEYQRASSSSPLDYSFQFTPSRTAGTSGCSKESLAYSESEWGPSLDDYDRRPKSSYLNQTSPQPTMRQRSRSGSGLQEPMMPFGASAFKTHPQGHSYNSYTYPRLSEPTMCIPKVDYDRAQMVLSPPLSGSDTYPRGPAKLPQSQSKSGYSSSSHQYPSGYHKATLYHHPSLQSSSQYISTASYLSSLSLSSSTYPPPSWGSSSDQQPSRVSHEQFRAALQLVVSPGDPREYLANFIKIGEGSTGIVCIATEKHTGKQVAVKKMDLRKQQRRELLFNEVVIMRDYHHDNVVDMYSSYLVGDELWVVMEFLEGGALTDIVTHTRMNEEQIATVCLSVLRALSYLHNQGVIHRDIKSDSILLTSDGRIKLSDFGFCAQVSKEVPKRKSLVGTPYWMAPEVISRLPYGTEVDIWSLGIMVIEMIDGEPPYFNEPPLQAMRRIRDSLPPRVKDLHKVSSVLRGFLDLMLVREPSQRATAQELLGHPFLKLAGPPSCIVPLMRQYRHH

[18] = target: Bone morphogenetic protein receptor type-1A (Homo sapiens) (UniProt P36894); assay: Inhibition of wild-type human partial length BMPR1A (Q214 to I532 residues) expressed in bacterial expression system assessed as residual activity at 50 nM by Kinomescan method relative to control
[19] = target: Uncharacterized serine/threonine-protein kinase SBK3 (Homo sapiens) (UniProt P0C264); assay: Inhibition of wild-type human partial length SGK110 (L22 to R329 residues) expressed in bacterial expression system assessed as residual activity at 50 nM by Kinomescan method relative to control
[20] = target: Dual specificity mitogen-activated protein kinase kinase 6 (Homo sapiens) (UniProt P52564); assay: Inhibition of wild-type human partial length MAP2K6 (K36 to D334 residues) expressed in bacterial expression system assessed as residual activity at 50 nM by Kinomescan method relative to control
[21] = target: Ribosomal protein S6 kinase alpha-4 (Homo sapiens) (UniProt O75676); assay: Inhibition of wild-type human partial length C-terminal MSK2 kinase domain 2 (M375 to T705 residues) expressed in mammalian expression system assessed as residual activity at 50 nM by Kinomescan method relative to control
[22] = target: Vascular endothelial growth factor receptor 3 (Homo sapiens) (UniProt P35916); assay: Inhibition of wild-type human partial length FLT4 (E821 to E1196 residues) expressed in bacterial expression system assessed as residual activity at 50 nM by Kinomescan method relative to control
[23] = target: Tyrosine-protein kinase JAK2 (Homo sapiens, UniProt O60674); assay: Inhibition of GST-tagged JAK2 (unknown origin) after 3 hrs by Caliper assay
[24] = target: cAMP-dependent protein kinase catalytic subunit beta (Homo sapiens) (UniProt P22694); assay: Inhibition of wild-type human full length PKACB (M1 to F351 residues) expressed in bacterial expression system assessed as residual activity at 50 nM by Kinomescan method relative to control
[25] = target: Tyrosine-protein kinase JAK1 (Homo sapiens, UniProt P23458); assay: Inhibition of GST-tagged JAK1 (unknown origin) after 3 hrs by Caliper assay
[26] = target: Mitogen-activated protein kinase 14 (Homo sapiens) (UniProt Q16539); assay: Inhibition of wild-type human full length p38-alpha (M1 to S360 residues) expressed in bacterial expression system assessed as residual activity at 50 nM by Kinomescan method relative to control
Mitogen-activated protein kinase 14 (Homo sapiens), sequence (Q16539 whole entry, the tested form may be a part): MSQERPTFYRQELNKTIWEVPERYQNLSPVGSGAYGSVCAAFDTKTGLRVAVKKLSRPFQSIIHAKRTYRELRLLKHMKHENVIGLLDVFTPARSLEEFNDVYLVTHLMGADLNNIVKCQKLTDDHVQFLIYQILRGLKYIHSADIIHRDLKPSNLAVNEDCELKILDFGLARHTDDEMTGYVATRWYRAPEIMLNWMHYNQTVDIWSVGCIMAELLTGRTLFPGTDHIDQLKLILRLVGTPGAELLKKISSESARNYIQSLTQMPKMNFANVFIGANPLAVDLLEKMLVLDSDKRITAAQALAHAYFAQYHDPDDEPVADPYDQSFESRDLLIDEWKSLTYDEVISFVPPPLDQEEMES

Atypical kinase COQ8A, mitochondrial (Homo sapiens), sequence (Q8NI60 163-647 limits assumed): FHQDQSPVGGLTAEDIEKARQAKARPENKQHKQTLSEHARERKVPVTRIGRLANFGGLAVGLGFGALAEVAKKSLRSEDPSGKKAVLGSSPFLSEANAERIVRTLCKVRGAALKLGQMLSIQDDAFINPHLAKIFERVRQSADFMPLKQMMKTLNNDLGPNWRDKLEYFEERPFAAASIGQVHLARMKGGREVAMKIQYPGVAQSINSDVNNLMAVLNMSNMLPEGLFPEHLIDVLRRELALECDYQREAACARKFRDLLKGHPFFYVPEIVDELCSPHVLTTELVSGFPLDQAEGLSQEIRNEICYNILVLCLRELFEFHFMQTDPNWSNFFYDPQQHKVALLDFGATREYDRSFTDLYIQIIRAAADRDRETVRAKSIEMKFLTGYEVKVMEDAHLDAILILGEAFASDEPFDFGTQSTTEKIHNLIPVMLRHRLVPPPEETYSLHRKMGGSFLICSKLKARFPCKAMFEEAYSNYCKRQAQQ

| Structure (SMILES) | Activity [1] [%] | Activity [2] [%] | Activity [3] [%] | Activity [4] [%] | Activity [5] [%] | Activity [6] [%] | Activity [7] [%] | Activity [8] [%] | Activity [9] [%] | Activity [10] [%] | Activity [11] [%] | Activity [12] [%] | Activity [13] [%] | Activity [14] [%] | Activity [15] [%] | Activity [16] [%] | Activity [17] [%] | Activity [18] [%] | Activity [19] [%] | Activity [20] [%] | other results |
| --- | --- | --- | --- | --- | --- | --- | --- | --- | --- | --- | --- | --- | --- | --- | --- | --- | --- | --- | --- | --- | --- |
| COc1ccc(-c2cc3c(N[C@@H]4CC[C@](C)(N)C4(C)C)c(C(N)=O)cnn3c2)cn1 | 76 | 100 | 100 | 85 | 61 | 100 | 34 | 91 | 100 | 100 | 100 | 100 | 91 | 100 | 93 | 84 | 68 | 100 | 62 | 78 | Activity [21]: 100%; Activity [22]: 86%; IC50 [23]: 15 nM; Activity [24]: 100%; IC50 [25]: 1.9 nM; Activity [26]: 100% |
| CC1(C)[C@H](Nc2c(C(N)=O)cnn3cc(-c4ccccc4)cc23)CC[C@]1(C)N | 100 | 100 | 56 | 95 | 27 | 67 | 5 | 96 | 91 | 64 | 66 | 100 | 91 | 100 | 100 | 56 | 50 | 100 | 41 | 100 | Activity [21]: 98%; Activity [22]: 100%; IC50 [23]: 9 nM; Activity [24]: 100%; IC50 [25]: 0.4 nM; Activity [26]: 94% |

— ChEMBL document CHEMBL4052645, “Discovery of potent and efficacious pyrrolopyridazines as dual JAK1/3 inhibitors” (Bioorg Med Chem Lett, 2017)
